Assay results reported in PubChem BioAssay (NCI).
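Five concentrations, 48 hours, 96-well plates. GI50 = concentration required for 50% inhibition of growth. TGI denotes the concentration required for complete inhibition of growth.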

Legend:
Test in all cases: NCI-60 cell line screen, 48 h
IGROV1 ovarian = tested on: IGROV1 ovarian
HCC-2998 colon = tested on: HCC-2998 colon
HL-60(TB) leukemia = tested on: HL-60(TB) leukemia
UACC-257 melanoma = tested on: UACC-257 melanoma
UACC-62 melanoma = tested on: UACC-62 melanoma
A549 NSCLC = tested on: A549 NSCLC
COLO 205 colon = tested on: COLO 205 colon
UO-31 renal = tested on: UO-31 renal
DU-145 prostate = tested on: DU-145 prostate
MDA-MB-231 breast = tested on: MDA-MB-231 breast
CCRF-CEM leukemia = tested on: CCRF-CEM leukemia
RXF 393 renal = tested on: RXF 393 renal
RPMI-8226 leukemia = tested on: RPMI-8226 leukemia
HS 578T breast = tested on: HS 578T breast
HOP-92 NSCLC = tested on: HOP-92 NSCLC
NCI-H226 lung = tested on: NCI-H226 lung
SF-295 CNS = tested on: SF-295 CNS
EKVX NSCLC = tested on: EKVX NSCLC
SK-MEL-5 melanoma = tested on: SK-MEL-5 melanoma
HOP-62 NSCLC = tested on: HOP-62 NSCLC
MCF7 breast = tested on: MCF7 breast
K-562 leukemia = tested on: K-562 leukemia
NCI-H460 lung = tested on: NCI-H460 lung
SK-OV-3 ovarian = tested on: SK-OV-3 ovarian
PC-3 prostate = tested on: PC-3 prostate
OVCAR-5 ovarian = tested on: OVCAR-5 ovarian
OVCAR-3 ovarian = tested on: OVCAR-3 ovarian
NCI-H23 lung = tested on: NCI-H23 lung
SW-620 colon = tested on: SW-620 colon

C=C1C(=O)O[C@H]2[C@H]1CC/C(COC(=O)NCc1ccc(Cn3c(=O)sn(CCCC)c3=O)cc1)=C\CC[C@@]1(C)O[C@@H]21
TGI (IGROV1 ovarian): 3.93 µM | GI50 (HCC-2998 colon): 4.1 µM | TGI (HCC-2998 colon): 13.4 µM | GI50 (HL-60(TB) leukemia): 1.81 µM | TGI (HL-60(TB) leukemia): 5.42 µM | GI50 (UACC-257 melanoma): 2.03 µM | TGI (UACC-257 melanoma): 4.93 µM | GI50 (UACC-62 melanoma): 1.62 µM | TGI (UACC-62 melanoma): 3.22 µM | GI50 (A549 NSCLC): 13.4 µM | TGI (A549 NSCLC): 28.7 µM | GI50 (COLO 205 colon): 2 µM | TGI (COLO 205 colon): 3.88 µM | GI50 (UO-31 renal): 1.45 µM | TGI (UO-31 renal): 2.78 µM | GI50 (DU-145 prostate): 1.81 µM | TGI (DU-145 prostate): 3.36 µM | GI50 (MDA-MB-231 breast): 1.8 µM | TGI (MDA-MB-231 breast): 3.57 µM | GI50 (CCRF-CEM leukemia): 0.657 µM | TGI (CCRF-CEM leukemia): 4.56 µM | GI50 (RXF 393 renal): 1.57 µM | TGI (RXF 393 renal): 3.04 µM | GI50 (RPMI-8226 leukemia): 1.48 µM | TGI (RPMI-8226 leukemia): 4.07 µM | GI50 (HS 578T breast): 3.24 µM | TGI (HS 578T breast): 12.7 µM | GI50 (HOP-92 NSCLC): 1.29 µM | TGI (HOP-92 NSCLC): 2.72 µM | GI50 (NCI-H226 lung): 11.9 µM | TGI (NCI-H226 lung): 29.8 µM | GI50 (SF-295 CNS): 15.3 µM | TGI (SF-295 CNS): 29 µM | GI50 (EKVX NSCLC): 3.32 µM | TGI (EKVX NSCLC): 9.83 µM | GI50 (SK-MEL-5 melanoma): 3.18 µM | TGI (SK-MEL-5 melanoma): 9.48 µM | GI50 (HOP-62 NSCLC): 12.7 µM | TGI (HOP-62 NSCLC): 26.6 µM | GI50 (MCF7 breast): 1.87 µM | TGI (MCF7 breast): 3.91 µM | GI50 (K-562 leukemia): 0.891 µM | TGI (K-562 leukemia): > 100 µM | GI50 (NCI-H460 lung): 5.92 µM | TGI (NCI-H460 lung): 19.6 µM | GI50 (SK-OV-3 ovarian): 15.2 µM | TGI (SK-OV-3 ovarian): 28.7 µM | GI50 (PC-3 prostate): 1.75 µM | TGI (PC-3 prostate): 3.56 µM | GI50 (OVCAR-5 ovarian): 1.93 µM | TGI (OVCAR-5 ovarian): 4.06 µM | GI50 (OVCAR-3 ovarian): 1.59 µM | TGI (OVCAR-3 ovarian): 2.97 µM | GI50 (NCI-H23 lung): 4.19 µM | TGI (NCI-H23 lung): 15.3 µM | GI50 (SW-620 colon): 1.51 µM | TGI (SW-620 colon): 3.09 µM
